# Positions of bridges follow the written chain, without caps; N, C: chain ends. Residues, ends and D or L forms follow the SMILES beside them. Chains are numbered I, II in the order given. *: point of attachment. Chenodeoxycholyl = C[C@H](CCC(=O)*)[C@H]1CC[C@H]2[C@@H]3[C@H](O)C[C@@H]4C[C@H](O)CC[C@]4(C)[C@H]3CC[C@]12C; Cholyl = C[C@H](CCC(=O)*)[C@H]1CC[C@H]2[C@@H]3[C@H](O)C[C@@H]4C[C@H](O)CC[C@]4(C)[C@H]3C[C@H](O)[C@]12C
# Tests used:
# EL4 lymphoma = experiment: EL4 tumor model in vivo (tumor growth, survival); set-up: species or system mice; conditions: highest tested dose (190 μM), every 48 h, 5 injections
# Protocol: Female C57BL/6 mice (n=10/group) received a SC injection of 5×10^5 EL4 cells at Day 0. […] For all depletion studies, antibodies were injected via the intraperitoneal route at days 0, 3 and 6 at a concentration of 200 μg/injection. Tumor size and animal survival for all of the above listed in vivo studies was followed thereafter using a digital caliber until reaching endpoints (ulceration or a tumor volume ≥1000 mm^3).
# EL4 cells = experiment: Endosomal escape: apoptosis assay with exogenous cytochrome C; assay type: cell-based; conditions: cytochrome C alone
# Protocol: Endosomal leakage was assessed using two different approaches; the first strategy utilizes the FRET sensor CCF4-AM, a β-lactamase substrate. Briefly, EL4 cells were treated with 1 μM CCF4-AM for 1 h followed by the addition of 10 mg/ml of β-lactamase in the presence or absence of CA-C-SV40 (at concentration of 190 μM) for 3 h at 37° ° C. The cells were then washed, and fresh media added for an incubation period of 16 h at 37° C. The loss of FRET signal between the coumarin (donor) and fluorescein (acceptor) fluorophores was quantified by flow cytometry. For the apoptosis assay, 10^5 EL4 cells were first supplemented with 10 mg/ml of exogenous rCyt-C for 6 h at 37° C. in the presence or absence of CA-C-SV40 (at a concentration of 190 μM). Once the incubation period completed, the cells were washed with ice cold PBS, then stained for Annexin-V according to manufacturer's instructions prior to analysis using BD FACS Diva on CANTOII.
# Cytochrome C is a protein that is normally entrapped in the mitochondria but can be released upon intrinsic signaling known to trigger apoptosis. An experiment was designed where recombinant cytochrome C was added to EL4 cells either alone or in combination with CA-C-SV40 ([…]) (FIG. 3A).
# [1] = tested on: EL4 lymphoma, B16 melanoma, E0771 breast cancer, CT-26 colon carcinoma, 4T1 breast cancer, MBA-MD-468, H460 and A549 lung cancer cells; experiment: Cytotoxicity screen of bile acid-SV40 conjugates (Annexin-V) on eight cancer cell lines; assay type: cell-based; conditions: 190 μM, all eight tumor cell lines tested
# Protocol: Annexin-V staining percentage after treatment with different bile acid-SV40 conjugates (190 μM) is shown relative to live cancer cells (i.e., PBS treated cancer cells) by flow cytometry. Cancer cell lines tested were EL4 lymphoma, B16 melanoma, E0771 breast cancer, CT-26 colon carcinoma, 4T1 breast cancer, MBA-MD-468 triple-negative breast cancer, human H460 lung cancer, and human A549 lung cancer. […] SV40 alone was also tested as a negative control.
# (§1) Apoptosis analysis was conducted by flow-cytometry. Briefly, target cells were first treated then washed. Treated cells were then re-suspended in Annexin-V staining buffer prior to staining with Annexin-V and propidium iodine (PI). Fifteen minutes later, cells were washed prior to analysis using BD FACS™ Diva on CANTOII™.
# EL4 lymphoma cells = experiment: Apoptosis analysis by flow cytometry (Annexin-V/PI); assay type: cell-based
# Protocol: as §1
# macrophages = experiment: Apoptosis analysis by flow cytometry on normal cells; assay type: cell-based; conditions: 190 μM
# Protocol: as §1
# [2] = tested on: mesenchymal stem cells (MSCs); experiment: as above; assay type: cell-based; conditions: 190 μM
# Protocol: as §1
# [3] = tested on: bone marrow-derived dendritic cells (DCs); experiment: as above; assay type: cell-based, mouse; conditions: 190 μM
# Protocol: Mouse bone marrow derived DCs (BMDCs) were generated by flushing the whole marrow from mouse femurs using RPMI™ 1640 supplemented with 10% fetal bovine serum (FBS), 50 U/mL Penicillin-Streptomycin, 2 mM L-glutamine, 10 mM HEPES, 1% MEM Non-essential Amino Acids, 1 mM Sodium Pyruvate, 0.5 mM β-mercaptoethanol. Following red blood cell lysis, cells were then cultured in media supplemented with 50 ng/ml murine recombinant GM-CSF. The media was changed on days 2, 4, 6 and 8. On day 9, the media was replaced to include recombinant murine GM-CSF and LPS from Escherichia coli 0111 (1 ng/mL) to stimulate DC maturation. Mature DCs were assessed by flow cytometry for their surface expression of CD3, CD19, NK1.1, CD11c, CD80, CD86, and I-A^b.
# as §1
# [4] = Stability testing (impurities by HPLC); assay type: physicochemical; conditions: dimer vs monomer
# From the text: GMP synthesis of the CDCA-C-SV40 monomer yielded a white powder and the results of initial stability testing is summarized below:
# As shown above, two main impurities were detected by HPLC relating to the reactivity of the free thiol group of the CDCA-C-SV40 monomer, namely impurities resulting from oxidation of the thiol group (Impurity A) and the formation an intermolecular disulfide bond via the thiol groups of two CDCA-C-SV40 monomers, producing a (CDCA-C-SV40)2 dimer (Impurity B).
# To attempt to improve stability, the synthesis protocol of CDCA-C-SV40 was modified to produce the conjugate directly in its dimerized form (Impurity B). […] At 25° C., total impurities rose only slightly from 1.6% at Day 0 to 2.1% after 3 months. At 40° C., total impurities rose from 1.6% at Day 0 to 1.7% after 5 days, 2.4% after 10 days, and to 3.7% after 30 days.
# [5] = tested on: 4T1, EL4, CT-26, B16 and E0771 tumor cell lines; experiment: Cell death by flow cytometry on five tumor cell lines; assay type: cell-based; conditions: 95 and 190 μM
# Protocol: as §1
compound,measurement,setting,value
CSCC[C@H](NC(=O)[C@H](CS)NC(=O)CC[C@@H](C)[C@H]1CC[C@H]2[C@@H]3[C@H](O)C[C@@H]4C[C@H](O)CC[C@]4(C)[C@H]3C[C@H](O)[C@]12C)C(=O)NCC(=O)N[C@@H](CCCNC(=N)N)C(=O)N[C@H](C(=O)N[C@@H](CCCNC(=N)N)C(=O)N[C@H](C(=O)N[C@@H](CCCCN)C(=O)N[C@H](C(=O)N[C@H](C(=O)N[C@@H](CCCCN)C(=O)N[C@@H](CCCCN)C(=O)N[C@@H](C)C(=O)N[C@@H](C)C(=O)NCC(=O)NCC(=O)O)C(C)C)[C@@H](C)O)[C@@H](C)O)C(C)C [CA-C-NLS1 RPS17] (Cholyl-CMGRVRTKTVKKAAGG-OH; N-terminus and C-terminus assumed),tumor growth,EL4 lymphoma,significantly delayed tumor growth
CC[C@H](C)[C@H](NC(=O)[C@H](CCCNC(=N)N)NC(=O)[C@H](CCCCN)NC(=O)[C@H](CCSC)NC(=O)[C@H](CC(C)C)NC(=O)[C@H](Cc1c[nH]cn1)NC(=O)[C@@H](NC(=O)[C@@H](NC(=O)[C@H](Cc1ccc(O)cc1)NC(=O)CNC(=O)[C@H](C)NC(=O)[C@@H](NC(=O)[C@H](CCCCN)NC(=O)[C@H](CC(N)=O)NC(=O)[C@H](CCCNC(=N)N)NC(=O)[C@H](CC(C)C)NC(=O)[C@H](CCCCN)NC(=O)[C@H](CCCCN)NC(=O)[C@H](CO)NC(=O)[C@H](CS)NC(=O)CC[C@@H](C)[C@H]1CC[C@H]2[C@@H]3[C@H](O)C[C@@H]4C[C@H](O)CC[C@]4(C)[C@H]3C[C@H](O)[C@]12C)[C@@H](C)CC)C(C)C)[C@@H](C)O)C(=O)O [CA-C-NLS3 RPS17] (Cholyl-CSKKLRNKIAGYVTHLMKRI-OH; N-terminus and C-terminus assumed),tumor growth,EL4 lymphoma,significantly delayed tumor growth
cytochrome C: recombinant cytochrome C added to EL4 cells as cargo,cell death,EL4 cells,did not trigger cell death
CC(C)[C@H](NC(=O)[C@H](CCCCN)NC(=O)[C@H](CCCNC(=N)N)NC(=O)[C@H](CCCCN)NC(=O)[C@H](CCCCN)NC(=O)[C@H](CCCCN)NC(=O)[C@@H]1CCCN1C(=O)CNC(=O)[C@H](Cc1ccc(O)cc1)NC(=O)CNC(=O)[C@H](CS)NC(=O)CC[C@@H](C)[C@H]1CC[C@H]2[C@@H]3[C@H](O)C[C@@H]4C[C@H](O)CC[C@]4(C)[C@H]3CC[C@]12C)C(=O)NCC(=O)NCC(=O)O [CDCA-C-SV40] (Chenodeoxycholyl-CGYGPKKKRKVGG-OH),cytotoxic activity,[1],100%
CC(C)[C@H](NC(=O)[C@H](CCCCN)NC(=O)[C@H](CCCNC(=N)N)NC(=O)[C@H](CCCCN)NC(=O)[C@H](CCCCN)NC(=O)[C@H](CCCCN)NC(=O)[C@@H]1CCCN1C(=O)CNC(=O)[C@H](Cc1ccc(O)cc1)NC(=O)CNC(=O)[C@H](CS)NC(=O)CC[C@@H](C)[C@H]1CC[C@H]2[C@@H]3[C@H](O)C[C@@H]4C[C@H](O)CC[C@]4(C)[C@H]3C[C@H](O)[C@]12C)C(=O)NCC(=O)NCC(=O)O [CA-C-SV40] (Cholyl-CGYGPKKKRKVGG-OH),cytotoxicity of cholic acid-NLS conjugates,"EL4 lymphoma cells; 190 μM, Annexin-V staining",notably higher than that of CA-C-GWG-SV40
same,apoptosis in normal or healthy cells,macrophages,induce apoptosis
same,apoptosis in normal or healthy cells,[2],induce apoptosis
same,apoptosis in normal or healthy cells,[3],induce apoptosis
CC(C)[C@H](NC(=O)[C@H](CCCCN)NC(=O)[C@H](CCCNC(=N)N)NC(=O)[C@H](CCCCN)NC(=O)[C@H](CCCCN)NC(=O)[C@H](CCCCN)NC(=O)[C@@H]1CCCN1C(=O)CNC(=O)[C@H](Cc1ccc(O)cc1)NC(=O)CNC(=O)[C@H](CSSC[C@H](NC(=O)CC[C@@H](C)[C@H]1CC[C@H]2[C@@H]3[C@H](O)C[C@@H]4C[C@H](O)CC[C@]4(C)[C@H]3CC[C@]12C)C(=O)NCC(=O)N[C@@H](Cc1ccc(O)cc1)C(=O)NCC(=O)N1CCC[C@H]1C(=O)N[C@@H](CCCCN)C(=O)N[C@@H](CCCCN)C(=O)N[C@@H](CCCCN)C(=O)N[C@@H](CCCNC(=N)N)C(=O)N[C@@H](CCCCN)C(=O)N[C@H](C(=O)NCC(=O)NCC(=O)O)C(C)C)NC(=O)CC[C@@H](C)[C@H]1CC[C@H]2[C@@H]3[C@H](O)C[C@@H]4C[C@H](O)CC[C@]4(C)[C@H]3CC[C@]12C)C(=O)NCC(=O)NCC(=O)O [(CDCA-C-SV40)2] (I: Chenodeoxycholyl-CGYGPKKKRKVGG-OH / II: Chenodeoxycholyl-CGYGPKKKRKVGG-OH; disulfide I:1-II:1),stability relative to corresponding monomer,[4],markedly higher stability
same,cytotoxicity,[5],potent cytotoxicity
"SV40 NLS: nuclear localization signal from SV40 large T-antigen (SEQ ID NO: 2), tested alone as negative control",cytotoxic activity,"EL4 lymphoma cells; separately, at any of the concentrations tested",did not exhibit any cytotoxic activity
"CC(=O)N[C@@H](CS)C(=O)O [NAC, N-acetylcysteine]",rescue from CA-C-SV40-triggered cell death,EL4 lymphoma cells; CA-C-SV40 at higher doses (IC100),incomplete but significant blockade
